Source: US10577363B2, “Substituted piperidine compounds” (EPIZYME, INC., priority 2014, dated 2020)
One block for each compound: values may come before it.

Columns and labels:
SMYD3 [1] = target: T1, SMYD3 (Homo sapiens (Human), UniProt Q9H7B4); test: SMYD3 biochemical assay (SPA, 3H-SAM methylation of MEKK2 protein substrate); settings: read-out: SMYD3 Biochem IC50*
How it was run: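 SPA methyltransferase format: tag-cleaved human SMYD3, insect-cell GST-MEKK2 protein substrate, 3H-SAM donor, 30 min RT enzyme–compound preincubation, 100 uM cold SAM quench.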

SMYD3 [2] = target: T1, SMYD3; test: SMYD3 cell assay (Trimethyl-MEKK2 In-Cell Western in 293T/17 cells); type: cell-based; settings: read-out: SMYD3 Cell IC50*
How it was run: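 In-Cell Western readout: methanol-fixed cells stained for trimethyl-MEKK2 and flag tag, ratio per well normalized to DMSO and background controls.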

T1 sequence (Q9H7B4 whole entry): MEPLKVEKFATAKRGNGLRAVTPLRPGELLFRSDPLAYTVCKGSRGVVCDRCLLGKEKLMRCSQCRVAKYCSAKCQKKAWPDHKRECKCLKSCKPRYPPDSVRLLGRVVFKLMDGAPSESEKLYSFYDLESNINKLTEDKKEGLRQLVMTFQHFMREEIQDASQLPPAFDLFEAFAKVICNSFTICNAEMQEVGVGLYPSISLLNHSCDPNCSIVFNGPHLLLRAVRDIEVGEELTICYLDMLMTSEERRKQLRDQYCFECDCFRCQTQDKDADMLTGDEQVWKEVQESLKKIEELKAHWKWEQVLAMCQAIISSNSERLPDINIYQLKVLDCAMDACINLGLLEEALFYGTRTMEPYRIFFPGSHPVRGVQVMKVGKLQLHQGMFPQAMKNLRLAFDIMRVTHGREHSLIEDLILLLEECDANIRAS

SMILES: CCN(C)C1CCN(S(=O)(=O)N2[C@@H]3CC[C@H]2C[C@@H](NC(=O)c2cc(C4CC4)on2)C3)CC1 [compound 852, 5-cyclopropyl-N-((1R,3r,5S)-8-((4-(ethyl(methyl)amino)piperidin-1-yl)sulfonyl)-8-azabicyclo[3.2.1]octan-3-yl)isoxazole-3-carboxamide]
IC50 (SMYD3 [1]): 0.0065 µM
IC50 (SMYD3 [2]): 0.114 µM

SMILES: CC(C)CNC1CCN(S(=O)(=O)N2[C@@H]3CC[C@H]2C[C@@H](NC(=O)c2cc(C4CC4)on2)C3)CC1 [compound 853, 5-cyclopropyl-N-((1R,3r,5S)-8-((4-(isobutylamino)piperidin-1-yl)sulfonyl)-8-azabicyclo[3.2.1]octan-3-yl)isoxazole-3-carboxamide]
IC50 (SMYD3 [1]): 0.00655 µM
IC50 (SMYD3 [2]): 0.071 µM

SMILES: O=C(N[C@H]1C[C@H]2CC[C@@H](C1)N2S(=O)(=O)N1CC2CCC1CN2)c1cc(C2CC2)on1 [compound 855, N-((1R,3r,5S)-8-((2,5-diazabicyclo[2.2.2]octan-2-yl)sulfonyl)-8-azabicyclo[3.2.1]octan-3-yl)-5-cyclopropylisoxazole-3-carboxamide]
IC50 (SMYD3 [1]): 0.00706 µM
IC50 (SMYD3 [2]): 0.0687 µM

SMILES: O=C(N[C@H]1C[C@H]2CC[C@@H](C1)N2S(=O)(=O)N1CCNCC1)c1cc(C2CC2)on1 [compound 856, 5-cyclopropyl-N-((1R,3r,5S)-8-(piperazin-1-ylsulfonyl)-8-azabicyclo[3.2.1]octan-3-yl)isoxazole-3-carboxamide]
IC50 (SMYD3 [1]): 0.00709 µM
IC50 (SMYD3 [2]): 0.0467 µM

SMILES: CC1CC(CS(=O)(=O)N2[C@@H]3CC[C@H]2C[C@@H](NC(=O)c2cc(C4CC4)on2)C3)CC(C)N1 (stereo partly drawn) [compound 857, 5-cyclopropyl-N-((1R,3r,5S)-8-(((2,6-dimethylpiperidin-4-yl)methyl)sulfonyl)-8-azabicyclo[3.2.1]octan-3-yl)isoxazole-3-carboxamide]
IC50 (SMYD3 [1]): 0.00709 µM
IC50 (SMYD3 [2]): 0.13 µM

IC50 (SMYD3 [1]): 0.0072 µM
IC50 (SMYD3 [2]): 0.172 µM
SMILES: C[C@H]1C[C@@H](NC(=O)c2cc(C3CC3)on2)CCN1S(=O)(=O)CC[C@H]1CCNC1 [compound 858, 5-cyclopropyl-N-((2S,4S)-2-methyl-1-((2-((R)-pyrrolidin-3-yl)ethyl)sulfonyl)piperidin-4-yl)isoxazole-3-carboxamide]

SMILES: O=C(N[C@H]1C[C@H]2CC[C@@H](C1)N2S(=O)(=O)[C@H]1CC[C@H](NCCN2CCOCC2)CC1)c1cc(C2CC2)on1 [compound 859, 5-cyclopropyl-N-((1R,3R,5S)-8-(((1r,4R)-4-((2-morpholinoethyl)amino)cyclohexyl)sulfonyl)-8-azabicyclo[3.2.1]octan-3-yl)isoxazole-3-carboxamide]
IC50 (SMYD3 [1]): 0.00743 µM
IC50 (SMYD3 [2]): 0.209 µM

SMILES: CC(C)CN(C)C1CCN(S(=O)(=O)N2[C@@H]3CC[C@H]2C[C@@H](NC(=O)c2cc(C4CC4)on2)C3)CC1 [compound 860, 5-cyclopropyl-N-((1R,3r,5S)-8-((4-(isobutyl(methyl)amino)piperidin-1-yl)sulfonyl)-8-azabicyclo[3.2.1]octan-3-yl)isoxazole-3-carboxamide]
IC50 (SMYD3 [1]): 0.00752 µM
IC50 (SMYD3 [2]): 0.139 µM

IC50 (SMYD3 [1]): 0.00765 µM
IC50 (SMYD3 [2]): 0.102 µM
SMILES: COCCNC1CCN(S(=O)(=O)N2CC[C@H](NC(=O)c3cc(C4CC4)on3)C[C@@H]2C)CC1 [compound 861, 5-cyclopropyl-N-((2S,4S)-1-((4-((2-methoxyethyl)amino)piperidin-1-yl)sulfonyl)-2-methylpiperidin-4-yl)isoxazole-3-carboxamide]

SMILES: CCCN(C)C1CCN(S(=O)(=O)N2[C@@H]3CC[C@H]2C[C@@H](NC(=O)c2cc(C4CC4)on2)C3)CC1 [compound 862, 5-cyclopropyl-N-((1R,3r,5S)-8-((4-(methyl(propyl)amino)piperidin-1-yl)sulfonyl)-8-azabicyclo[3.2.1]octan-3-yl)isoxazole-3-carboxamide]
IC50 (SMYD3 [1]): 0.00769 µM
IC50 (SMYD3 [2]): 0.0765 µM

SMILES: CCCNC1CCN(S(=O)(=O)N2[C@@H]3CC[C@H]2C[C@@H](NC(=O)c2cc(C4CC4)on2)C3)CC1 [compound 863, 5-cyclopropyl-N-((1R,3r,5S)-8-((4-(propylamino)piperidin-1-yl)sulfonyl)-8-azabicyclo[3.2.1]octan-3-yl)isoxazole-3-carboxamide]
IC50 (SMYD3 [1]): 0.00777 µM
IC50 (SMYD3 [2]): 0.08 µM
